The test system of data set [1] is MDA-MB-231. The data set can be described thus: Photocytotoxicity in human MDA-MB-231 cells assessed as cell viability at 1 uM preincubated with compound for 1 hr followed by light irradiated with 400 to 700 nm 100 mW/cm^2 for 10 mins and measured after 24 hrs by CCK-8 assay. It is filed as functional, cell-based. To be noted: time 1510.0 min. On the technique in general: Formazan colour is commonly taken as a measure of viable cells.

In data set [2] the test system is MDA-MB-231. The data set can be described thus: Photocytotoxicity in human MDA-MB-231 cells assessed as cell viability preincubated with compound for 1 hr followed by light irradiated with 400 to 700 nm 100 mW/cm^2 for 10 mins and measured after 24 hrs by CCK-8 assay. As to conditions: MDA-MB-231, light or radiation study. The format is functional, cell-based.
Data set [3] is described as follows: Dark cytotoxicity against human MDA-MB-231 cells assessed as cell viability incubated for 24 hrs by CCK8 assay. The format is toxicity, cell-based.
Data set [4] has as its system MDA-MB-231. The data set is described as follows: Dark cytotoxicity against human MDA-MB-231 cells assessed as cell viability at 1 uM incubated for 24 hrs by CCK8 assay. As to conditions: mda-mb-231, 24 h. The format is toxicity, cell-based.
Data set [5] can be described thus: Induction of ROS generation in BPS buffer assessed as increase in superoxide anion radical level at 10 uM irradiated with 525 nm 20 mW/cm2 light by DHR123 probe based fluorescence spectra analysis. The format is functional.

Structures are written as SMILES. Calls of active or inactive are those of the source. The rule behind the calls is not given here. A value given as a limit tells only on which side of the number the result lay.

For orientation: IC50 means the concentration needed to halve the response being measured. For `C[N+]1=C(/C=C/c2ccc(-c3cnn4ccc(N5CCOCC5)nc34)s2)C(C)(C)c2ccccc21`, the result in data set [1] was Active. In addition, in data set [2], the IC50 worked out at 0.33 µM. Moreover, the IC50 at 24 h in data set [3] was more than 10 µM.
With `CC[n+]1ccc(/C=C/c2ccc(-c3cnn4ccc(N5CCOCC5)nc34)s2)cc1.[Br-]`, in data set [4], the Activity result is listed as “Non-toxic”. Also, the IC50 in data set [2] was more than 10 µM. Besides, the IC50 at 24 h in data set [3] was more than 10 µM.
For `COC(=O)c1ccccc1C1c2ccc(N)cc2Oc2cc(N)ccc21`, the result in data set [5] was Active.
Take `CC[n+]1ccc(/C=C/c2ccc(-c3cnn4ccc(N5CCOCC5)nc34)s2)c2ccccc21`: the IC50 in data set [2] was found to be 0.92 µM. Moreover, in data set [3], the IC50 at 24 h was more than 10 µM.

Source of the values: ChEMBL document CHEMBL6177984, “Pyrazolo[1,5-a]pyrimidine-Based Type-I Photosensitizer as an Efficient Pyroptosis Inducer for Tumor Ablation” (J Med Chem, 2025).
